Experimental data taken from ChEMBL document CHEMBL3120075 (J Med Chem, 2014).

How the values were obtained:
Hepatitis C virus [1] = assay: Antiviral activity against HCV genotype 1b Con1 infected in human HuH7 cells assessed as inhibition of viral RNA replication after 3 days by renilla luciferase reporter gene assay in presence of human serum; assay type: functional, organism-based, Hepacivirus hominis; conditions: isolate Con1, Huh-7, 72 h
Hepatitis C virus [2] = assay: Antiviral activity against HCV genotype 1a H77 infected in human HuH7 cells assessed as inhibition of viral RNA replication after 3 days by renilla luciferase reporter gene assay in presence of 10% BSA; assay type: functional, organism-based, Hepacivirus hominis; conditions: genotype 1a H77, Huh-7, 72 h
[3] = Plasma concentration in fasted healthy human at 3 mg/kg, po at 24 hrs; assay type: ADME, organism-based; design: dose 3 mg/kg, route oral
[4] = AUC (infinity) in fasted healthy human at 30 mg/kg, po; assay type: ADME, organism-based; design: time infinity, dose 30 mg/kg, route oral; conditions: plasma
[5] = Tmax in fasted healthy human at 30 mg/kg, po; assay type: ADME, organism-based; design: dose 30 mg/kg, route oral; conditions: in vivo
[6] = Tmax in fasted healthy human at 100 mg/kg, po; assay type: ADME, organism-based; design: dose 100 mg/kg, route oral; conditions: in vivo
[7] = Half life in Sprague-Dawley rat at 1 mg/kg, iv; assay type: ADME, organism-based; design: dose 1 mg/kg, route intravenous; conditions: in vivo
[8] = Metabolic stability in cynomolgus monkey liver microsomes assessed as hepatic extraction at 3 uM after 60 mins by LC/MS/MS analysis; assay type: ADME, Macaca fascicularis, Microsome; conditions: read-out: ERH
[9] = Mean residence time in Sprague-Dawley rat at 1 mg/kg, iv; assay type: ADME, organism-based; design: dose 1 mg/kg, route intravenous; conditions: in vivo
[10] = Ratio of EC50 for HCV genotype 1a H77 infected in human HuH7 cells in presence of 10% BSA to plasma concentration in fasted healthy human at 3 mg/kg, po at 24 hrs; design: species or system Huh-7
[11] = Clearance in beagle dog at 0.2 mg/kg, iv; assay type: ADME, organism-based, Canis lupus familiaris; design: dose 0.2 mg/kg, route intravenous; conditions: in vivo
[12] = AUClast in fasted healthy human at 30 mg/kg, po; assay type: ADME, organism-based; design: time 0 - last, dose 30 mg/kg, route oral; conditions: plasma
[13] = Cmax in fasted healthy human at 60 mg/kg, po; assay type: ADME, organism-based; design: dose 60 mg/kg, route oral; conditions: in vivo
[14] = Volume of distribution at steady state in beagle dog at 0.2 mg/kg, iv; assay type: ADME, organism-based, Canis lupus familiaris; design: dose 0.2 mg/kg, route intravenous; conditions: in vivo, read-out: Vdss
Hepatitis C virus [15] = assay: Ratio of EC50 for HCV genotype 1a H77 infected in human HuH7 cells in presence of human serum to EC50 for HCV genotype 1a H77 infected in human HuH7 cells; assay type: functional, Hepacivirus hominis, Huh-7
[16] = AUC (infinity) in fasted healthy human at 100 mg/kg, po; assay type: ADME, organism-based; design: time infinity, dose 100 mg/kg, route oral; conditions: plasma
Canis familiaris = organism: Canis familiaris; assay: Toxicity in beagle dog assessed as adverse effects by 14 day toxicology study; assay type: organism-based, Canis lupus familiaris; conditions: in vivo, 336 h
[17] = AUClast in fasted healthy human at 3 mg/kg, po; assay type: ADME, organism-based; design: time 0 - last, dose 3 mg/kg, route oral; conditions: plasma
[18] = Tmax in fasted healthy human at 3 mg/kg, po; assay type: ADME, organism-based; design: dose 3 mg/kg, route oral; conditions: in vivo
[19] = Metabolic stability in Sprague-Dawley rat liver microsomes assessed as hepatic extraction at 3 uM after 60 mins by LC/MS/MS analysis; assay type: ADME; conditions: read-out: ERH
[20] = Cmax in fasted healthy human at 10 mg/kg, po; assay type: ADME, organism-based; design: dose 10 mg/kg, route oral; conditions: in vivo
[21] = Plasma concentration in fasted healthy human at 60 mg/kg, po at 24 hrs; assay type: ADME, organism-based; design: dose 60 mg/kg, route oral
Hepatitis C virus [22] = assay: Ratio of EC50 for HCV genotype 1b Con1 infected in human HuH7 cells in presence of 10% BSA to EC50 for HCV genotype 1b Con1 infected in human HuH7 cells; assay type: functional, Hepacivirus hominis, isolate Con1, Huh-7
[23] = Half life in fasted healthy human at 30 mg/kg, po; assay type: ADME, organism-based; design: dose 30 mg/kg, route oral; conditions: in vivo
[24] = AUClast in fasted healthy human at 60 mg/kg, po; assay type: ADME, organism-based; design: dose 60 mg/kg, route oral, time 0 - last; conditions: plasma
[25] = Metabolic stability in human liver microsomes assessed as hepatic extraction at 3 uM after 60 mins by LC/MS/MS analysis; assay type: ADME; conditions: read-out: ERH
[26] = Half life in fasted healthy human at 10 mg/kg, po; assay type: ADME, organism-based; design: dose 10 mg/kg, route oral; conditions: in vivo
Hepatitis C virus [27] = assay: Antiviral activity against HCV genotype 1a H77 infected in human HuH7 cells assessed as inhibition of viral RNA replication after 3 days by renilla luciferase reporter gene assay in presence of human serum; assay type: functional, organism-based, Hepacivirus hominis; conditions: genotype 1a H77, Huh-7, 72 h
[28] = Half life in fasted healthy human at 100 mg/kg, po; assay type: ADME, organism-based; design: dose 100 mg/kg, route oral; conditions: in vivo
[29] = Half life in cynomolgus monkey at 0.5 mg/kg, iv; assay type: ADME, organism-based, Macaca fascicularis; design: dose 0.5 mg/kg, route intravenous; conditions: in vivo
Rattus norvegicus = organism: Rattus norvegicus; assay: Toxicity in Sprague-Dawley rat assessed as adverse effects by 14 day toxicology study; assay type: organism-based; conditions: in vivo, 336 h
[30] = Tmax in fasted healthy human at 10 mg/kg, po; assay type: ADME, organism-based; design: dose 10 mg/kg, route oral; conditions: in vivo

- EC50 (Hepatitis C virus [1]): 0.027 nM
- EC50 (Hepatitis C virus [2]): 0.21 nM
- concentration at 24 h [3]: 2.45 nM
- AUC(0-inf) [4]: 2.72 µM·h
- Tmax [5]: 5.75 h
- Tmax [6]: 5.5 h
- half-life [7]: 4.67 h
- hepatic extraction ratio at 1 h, 3 µM [8]: < 0.127
- MRT [9]: 6.19 h
- clearance [11]: 2.17 mL/min/kg
- AUC(0-t) [12]: 2.24 µM·h
- Cmax [13]: 133 nM
- Vd [14]: 1.19 L/kg
- AUC(0-inf) [16]: 8.66 µM·h
- AUC(0-t) [17]: 0.14 µM·h
- Tmax [18]: 5.25 h
- hepatic extraction ratio at 1 h, 3 µM [19]: < 0.092
- Cmax [20]: 21.3 nM
- concentration at 24 h [21]: 56.4 nM
- half-life [23]: 37.2 h
- AUC(0-t) [24]: 4.01 µM·h
- hepatic extraction ratio at 1 h, 3 µM [25]: < 0.127
- half-life [26]: 42.4 h
- EC50 (Hepatitis C virus [27]): 0.21 nM
- half-life [28]: 39.5 h
- half-life [29]: 10.3 h
- Tmax [30]: 5 h
Compound: COC(=O)N[C@H](C(=O)N1CC2(CC2)C[C@H]1c1nc(-c2ccc3c(c2)C(F)(F)c2cc(-c4ccc5[nH]c([C@@H]6[C@H]7CC[C@H](C7)N6C(=O)[C@@H](NC(=O)OC)C(C)C)nc5c4)ccc2-3)c[nH]1)C(C)C
- Ratio [10]: 12
- Ratio EC50 (Hepatitis C virus [15]): 6.7
- Activity (Canis familiaris): Non-toxic
- Ratio EC50 (Hepatitis C virus [22]): 6.7
- Activity (Rattus norvegicus): Non-toxic
